Assay in all cases: relative viability (nuclei count vs DMSO), 5 days (fraction); higher = more cells survive
Compound in test [1]: C[C@]1(O)C[C@@H](c2nc(-c3ccc4ccc(-c5ccccc5)nc4c3)c3c(N)nccn32)C1 [Linsitinib] + Nc1nc2[nH]cc(CCc3ccc(C(=O)N[C@@H](CCC(=O)O)C(=O)O)cc3)c2c(=O)[nH]1 [Pemetrexed] (partner 0.2 µM)
An outline of the steps:
(§1)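 Nuclei were stained with Hoechst during a one-step fixation (final 0.05% Triton X-100, 1% formaldehyde, 1 ug/ml Hoechst) carried out 5 days after dosing, then counted on 4× images. The cells, lung cancer lines in 1536-well plates, had been dosed by pin tool the day after seeding with one drug alone or a fixed anchor-drug dose plus five library-drug doses (not always all listed) in √10 steps. Relative viability is the nuclei count in treated wells divided by that in vehicle wells, and each value is the median of duplicate plates.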

Compound in test [2]: C[C@]1(O)C[C@@H](c2nc(-c3ccc4ccc(-c5ccccc5)nc4c3)c3c(N)nccn32)C1 [Linsitinib] + CC(=O)Nc1cccc(-n2c(=O)n(C3CC3)c(=O)c3c(Nc4ccc(I)cc4F)n(C)c(=O)c(C)c32)c1 [Trametinib] (partner 0.02 µM)
In short, it runs like this: as §1

Compound in test [3]: C[C@]1(O)C[C@@H](c2nc(-c3ccc4ccc(-c5ccccc5)nc4c3)c3c(N)nccn32)C1 [Linsitinib] + CC(=O)c1c(C)c2cnc(Nc3ccc(N4CCNCC4)cn3)nc2n(C2CCCC2)c1=O [Palbociclib] (partner 0.5 µM)
An outline of the steps:
as §1

Compound in test [4]: Cc1ccc(C(=O)N(CCCN)[C@@H](c2nc3cc(Cl)ccc3c(=O)n2Cc2ccccc2)C(C)C)cc1 [Ispinesib] + CCNC(=O)c1noc(-c2cc(C(C)C)c(O)cc2O)c1-c1ccc(CN2CCOCC2)cc1 [Luminespib] (partner 0.01 µM)
An outline of the steps:
as §1

As for SK-LU-1, the relative viability in test [1] (first compound 0.01 µM) was 0.913; in test [1] (first compound 0.03162 µM) it was 0.686; in test [1] (first compound 0.1 µM), 0.997; in test [1] (first compound 0.3162 µM) it was 0.894; in test [1] (first compound 1 µM), 0.985; in test [2] (first compound 0.01 µM), 0.551. Besides, the relative viability in test [2] (first compound 0.03162 µM) was found to be 0.349; in test [2] (first compound 0.1 µM) it was 0.538; in test [2] (first compound 0.3162 µM) it was 0.471; in test [2] (first compound 1 µM), 0.534; in test [3] (first compound 0.01 µM) it was 0.436; in test [3] (first compound 0.03162 µM), 0.303. The relative viability turned out to be 0.394 in test [3] (first compound 0.1 µM); 0.391 in test [3] (first compound 0.3162 µM); 0.384 in test [3] (first compound 1 µM); 0.212 in test [4] (first compound 0.001 µM); 0.224 in test [4] (first compound 0.003162 µM); 0.219 in test [4] (first compound 0.01 µM). In addition, the relative viability was 0.194 in test [4] (first compound 0.03162 µM) and 0.178 in test [4] (first compound 0.1 µM).

Consider NCI-H1395, for which the relative viability in test [1] (first compound 0.01 µM) is 0.77; in test [1] (first compound 0.1 µM), 0.979; in test [1] (first compound 0.3162 µM) it was 0.673; in test [1] (first compound 1 µM), 0.835; in test [2] (first compound 0.01 µM), 1; in test [2] (first compound 0.1 µM), 1.05. Further, the relative viability in test [2] (first compound 0.3162 µM) is 0.961; in test [2] (first compound 1 µM), 1.03; in test [3] (first compound 0.01 µM), 0.653; in test [3] (first compound 0.1 µM), 0.713; in test [3] (first compound 0.3162 µM), 0.641; in test [3] (first compound 1 µM) it was 0.654. In addition, the relative viability in test [4] (first compound 0.001 µM) was determined as 0.793; in test [4] (first compound 0.003162 µM), 0.769; in test [4] (first compound 0.01 µM), 0.817; in test [4] (first compound 0.03162 µM), 0.655; in test [4] (first compound 0.1 µM) it was 0.447.

Regarding COR-L23, the relative viability in test [1] (first compound 0.01 µM) was 0.202; in test [1] (first compound 0.03162 µM), 0.184; in test [1] (first compound 0.1 µM), 0.189; in test [1] (first compound 0.3162 µM) it was 0.184; in test [1] (first compound 1 µM), 0.18; in test [2] (first compound 0.01 µM), 0.623. Also, the relative viability in test [2] (first compound 0.03162 µM) was found to be 0.505; in test [2] (first compound 0.1 µM) it was 0.548; in test [2] (first compound 0.3162 µM) it was 0.475; in test [2] (first compound 1 µM), 0.507; in test [3] (first compound 0.01 µM), 0.278; in test [3] (first compound 0.03162 µM) it was 0.3. The relative viability in test [3] (first compound 0.1 µM) was found to be 0.249; in test [3] (first compound 0.3162 µM) it was 0.198; in test [3] (first compound 1 µM), 0.226; in test [4] (first compound 0.001 µM), 0.805; in test [4] (first compound 0.003162 µM), 0.815; in test [4] (first compound 0.01 µM), 0.824. Besides, the values for the relative viability in test [4] (first compound 0.03162 µM) and in test [4] (first compound 0.1 µM) were 0.356 and 0.215, respectively.

EMC-BAC-2: the relative viability in test [1] (first compound 0.01 µM) turned out to be 0.397; in test [1] (first compound 0.03162 µM), 0.394; in test [1] (first compound 0.1 µM), 0.447; in test [1] (first compound 0.3162 µM) it was 0.448; in test [1] (first compound 1 µM), 0.432; in test [2] (first compound 0.01 µM), 0.93. Moreover, the relative viability in test [2] (first compound 0.03162 µM) is 0.939; in test [2] (first compound 0.1 µM) it was 0.82; in test [2] (first compound 0.3162 µM) it was 0.575; in test [2] (first compound 1 µM), 0.593; in test [3] (first compound 0.01 µM) it was 0.512; in test [3] (first compound 0.03162 µM), 0.509. For the same cell line, the relative viability in test [3] (first compound 0.1 µM) was found to be 0.493; in test [3] (first compound 0.3162 µM), 0.478; in test [3] (first compound 1 µM) it was 0.425; in test [4] (first compound 0.001 µM), 0.797; in test [4] (first compound 0.003162 µM) it was 1.32; in test [4] (first compound 0.01 µM), 1.36. Besides, the values for the relative viability in test [4] (first compound 0.03162 µM) and in test [4] (first compound 0.1 µM) were 1.13 and 0.6, respectively.

Values taken from the supplement of paper PMC10307832.
